Consider 31 molecules from patent US10961253B2, “Positive allosteric modulators of the muscarinic acetylcholine receptor M4” (Vanderbilt University, priority 2016, dated 2021).

One data set concerns the target T1, Human M4 (Homo sapiens, UniProt P08173).
T1 sequence (P08173 1-479): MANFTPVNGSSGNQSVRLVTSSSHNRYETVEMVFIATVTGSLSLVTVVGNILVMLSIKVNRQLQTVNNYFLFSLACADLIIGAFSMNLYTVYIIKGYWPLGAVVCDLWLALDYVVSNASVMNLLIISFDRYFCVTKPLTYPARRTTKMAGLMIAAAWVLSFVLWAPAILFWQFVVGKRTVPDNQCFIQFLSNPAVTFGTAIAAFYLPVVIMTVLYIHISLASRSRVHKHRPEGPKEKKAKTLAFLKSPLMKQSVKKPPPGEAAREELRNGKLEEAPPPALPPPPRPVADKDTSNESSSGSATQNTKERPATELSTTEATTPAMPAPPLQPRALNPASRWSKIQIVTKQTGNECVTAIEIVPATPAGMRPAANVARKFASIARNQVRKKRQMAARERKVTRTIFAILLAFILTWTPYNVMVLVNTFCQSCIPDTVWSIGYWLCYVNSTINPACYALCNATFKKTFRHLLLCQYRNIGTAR
The data set is described as follows: mAChR M4 cell-based functional assay (calcium flux, potentiation of EC20 acetylcholine response). Set-up: Emax: dose or concentration left out as unconfirmed. The following applies: for Emax: CHO-K1.

The conditions of data set [1]: human, in vivo; cited from earlier work.
The conditions of data set [2]: similar profiles to known antipsychotic drugs, without causing catalepsy; cited from earlier work.
For data set [3] the following is noted: Alzheimer's disease patients; delusions, suspiciousness, vocal outbursts, hallucinations; cited from earlier work.

Molecules are shown by their SMILES. Bounds are passed on as bounds.

Take `Cc1cc(C)c2c(n1)sc1c(C)ncnc12` [Compound 4, 4,7,9-trimethylpyrido[3′,2′:4,5]thieno[3,2-d]pyrimidine]: on Human M4, the EC50 was 2800 nM and the maximum response (Emax) amounted to 58.1%.
As for `Cc1cc(C)c2c(n1)sc1c(C3CCCCC3)ncnc12` [Compound 9, 4-cyclohexyl-7,9-dimethylpyrido[3′,2′:4,5]thieno[3,2-d]pyrimidine], at Human M4, the EC50 stood at 6800 nM and the Emax came out at 70.8%.
As to `Nc1c2c(nc3ccccc13)CCCC2` [tacrine], in data set [1], the “elevated liver transaminases (hepatotoxicity), share of patients” value is “about 30%”.
For the molecule `Cc1nnc2sc3c(C4CCCCC4)ncnc3c2c1C` [Compound 16, 8-cyclohexyl-3,4-dimethylpyrimido[4′,5′:4,5]thieno[2,3-c]pyridazine], at Human M4, the EC50 amounted to 52 nM and the Emax was 72.6%.
With `Cc1cc(C)c2c(n1)sc1c(C3CCOCC3)ncnc12` [Compound 1, 7,9-Dimethyl-4-(tetrahydro-2H-pyran-4-yl)pyrido[3′,2′:4,5]thieno[3,2-d]pyrimidine], at Human M4, the EC50 was 150 nM and the Emax is 98.8%.
Regarding `Cc1nnc2sc3c(C4CCOCC4)ncnc3c2c1C` [Compound 18, 3,4-dimethyl-8-(tetrahydro-2H-pyran-4-yl)pyrimido[4′,5′:4,5]thieno[2,3-c]pyridazine], the Emax on Human M4 was 74.6%.
Regarding `Cc1nnc2sc3c(C4CCN(C(=O)C5(F)CC5)CC4)ncnc3c2c1C` [Compound 20, (4-(3,4-dimethylpyrimido[4′,5′:4,5]thieno[2,3-c]pyridazin-8-yl)piperidin-1-yl)(1-fluorocyclopropyl)methanone], at Human M4, the EC50 was found to be 490 nM and the maximum response (Emax) is 39.1%.
`Cc1nnc2sc3c(C4CC(F)(F)C4)ncnc3c2c1C` [Compound 22, 8-(3,3-difluorocyclobutyl)-3,4-dimethylpyrimido[4′,5′:4,5]thieno[2,3-c]pyridazine]: at Human M4, the Emax came out at 72.1%.
On to `Cc1cc(C)c2c(n1)sc1c(C3CCNCC3)ncnc12` [Compound 10, 7,9-dimethyl-4-(piperidin-4-yl)pyrido[3′,2′:4,5]thieno[3,2-d]pyrimidine], for which, at Human M4, the EC50 came out at 6100 nM and the maximum response (Emax) was 98.8%.
Regarding `Cc1cc(C)c2c(n1)sc1c(C3CCN(C(=O)C4(F)CC4)CC3)ncnc12` [Compound 12, (4-(7,9-dimethylpyrido[3′,2′:4,5]thieno[3,2-d]pyrimidin-4-yl)piperidin-1-yl)(1-fluorocyclopropyl)methanone], at Human M4, the EC50 came to 820 nM and the Emax worked out at 62%.
In the case of `CCCCCCOc1nsnc1C1=CCCN(C)C1` [xanomeline], in data set [2], the “activity in animal models” value was “active in animal models”. For the same molecule, in data set [3], the “effect on psychotic behavioral symptoms” value is recorded as “reduce psychotic behavioral symptoms”.
For `Cc1cc(C)c2c(n1)sc1c(C3CCN(C4COC4)CC3)ncnc12` [Compound 21, 7,9-dimethyl-4-(1-(oxetan-3-yl)piperidin-4-yl)pyrido[3′,2′:4,5]thieno[3,2-d]pyrimidine], at Human M4, the EC50 turned out to be 1600 nM and the Emax was determined as 41.8%.
Regarding `Cc1nnc2sc3c(C4CC4)ncnc3c2c1C` [Compound 17, 8-cyclopropyl-3,4-dimethylpyrimido[4′,5′:4,5]thieno[2,3-c]pyridazine], on Human M4, the EC50 came out at 140 nM and the Emax came out at 73.5%.
In the case of `Cc1nnc2sc3c(C4CCCN(C=O)C4)ncnc3c2c1C` (stereo not shown) [Compound 23, 3-(3,4-dimethylpyrimido[4′,5′:4,5]thieno[2,3-c]pyridazin-8-yl)piperidine-1-carbaldehyde], on Human M4, the EC50 was found to be 510 nM and the maximal response (Emax) came to 67%.
Consider `Cc1nnc2sc3c(CC(C)(C)C)ncnc3c2c1C` [Compound 28, 3,4-dimethyl-8-neopentylpyrimido[4′,5′:4,5]thieno[2,3-c]pyridazine], for which the maximum response (Emax) at Human M4 came to 75.6%.
As to `Cc1nnc2sc3c(C4CCC(F)(F)CC4)ncnc3c2c1C` [Compound 25, 8-(4,4-difluorocyclohexyl)-3,4-dimethylpyrimido[4′,5′:4,5]thieno[2,3-c]pyridazine], at Human M4, the EC50 is 45 nM and the Emax turned out to be 96.3%.
For `CCCCc1ncnc2c1sc1nnc(C)c(C)c12` [Compound 29, 8-butyl-3,4-dimethylpyrimido[4′,5′:4,5]thieno[2,3-c]pyridazine], in that order: 540 nM and 93.4%.
Regarding `Cc1cc(C)c2c(n1)sc1c(C3CCN(C=O)CC3)ncnc12` [Compound 7, 4-(7,9-dimethylpyrido[3′,2′:4,5]thieno[3,2-d]pyrimidin-4-yl)piperidine-1-carbaldehyde], on Human M4, the EC50 worked out at 480 nM and the Emax amounted to 65.6%.
In the case of `Cc1cc(C)c2c(n1)sc1c(C3CCN(C(=O)C4CC4)CC3)ncnc12` [Compound 11, cyclopropyl(4-(7,9-dimethylpyrido[3′,2′:4,5]thieno[3,2-d]pyrimidin-4-yl)piperidin-1-yl)methanone], on Human M4, the EC50 came out at 620 nM and the Emax was found to be 43.5%.
As to `Cc1cc(C)c2c(n1)sc1c(C3CCN(C(=O)C4(C)CC4)CC3)ncnc12` [Compound 13, (4-(7,9-dimethylpyrido[3′,2′:4,5]thieno[3,2-d]pyrimidin-4-yl)piperidin-1-yl)(1-methylcyclopropyl)methanone], at Human M4, the EC50 is 230 nM and the maximal response (Emax) was determined as 63%.
Take `C/C=C/c1ncnc2c1sc1nc(C)cc(C)c12` [Compound 2, (E)-7,9-dimethyl-4-(prop-1-en-1-yl)pyrido[3′,2′:4,5]thieno[3,2-d]pyrimidine; 2,2,2-trifluoroacetic acid]: on Human M4, the EC50 was > 10000 nM and the maximal effect (Emax) came out at 55.3%.
For `Cc1cc(C)c2c(n1)sc1c(C3CC3)ncnc12` [Compound 5, 4-cyclopropyl-7,9-dimethylpyrido[3′,2′:4,5]thieno[3,2-d]pyrimidine], at Human M4, the concentration giving a half-maximal response (EC50) came out at 3900 nM and the Emax is 61.5%.
Regarding `Cc1nnc2sc3c(C4CCN(C(=O)C5CC5)CC4)ncnc3c2c1C` [Compound 26, cyclopropyl(4-(3,4-dimethylpyrimido[4′,5′:4,5]thieno[2,3-c]pyridazin-8-yl)piperidin-1-yl)methanone], at Human M4, the concentration for a half-maximal effect (EC50) came to 410 nM and the Emax turned out to be 36.5%.
`Cc1nnc2sc3c(CCC4CCCCO4)ncnc3c2c1C` (stereo not shown) [Compound 24, 3,4-dimethyl-8-(2-(tetrahydro-2H-pyran-2-yl)ethyl)pyrimido[4′,5′:4,5]thieno[2,3-c]pyridazine]: at Human M4, the concentration for a half-maximal effect (EC50) amounted to 280 nM and the Emax amounted to 59.8%.
As for `Cc1nnc2sc3c(C4CCNCC4)ncnc3c2c1C` [Compound 19, 3,4-dimethyl-8-(piperidin-4-yl)pyrimido[4′,5′:4,5]thieno[2,3-c]pyridazine], at Human M4, the EC50 came out at 4300 nM and the maximal effect (Emax) was 33.8%.
In the case of `Cc1cc(C)c2c(n1)sc1c(C3CCN(C(=O)C4CCC4)CC3)ncnc12` [Compound 14, cyclobutyl(4-(7,9-dimethylpyrido[3′,2′:4,5]thieno[3,2-d]pyrimidin-4-yl)piperidin-1-yl)methanone], at Human M4, the concentration for a half-maximal effect (EC50) worked out at 520 nM and the Emax worked out at 72.3%.
Take `Cc1cc(C)c2c(n1)sc1c(C3CCCC3)ncnc12` [Compound 8, 4-cyclopentyl-7,9-dimethylpyrido[3′,2′:4,5]thieno[3,2-d]pyrimidine]: on Human M4, the EC50 was > 10000 nM and the Emax was determined as 70.9%.
As to `Cc1nnc2sc3c(C4CCN(C(=O)C5CCCO5)CC4)ncnc3c2c1C` (stereo not shown) [Compound 27, (4-(3,4-dimethylpyrimido[4′,5′:4,5]thieno[2,3-c]pyridazin-8-yl)piperidin-1-yl)(tetrahydrofuran-2-yl)methanone], on Human M4, the concentration for a half-maximal effect (EC50) amounted to 1900 nM and the Emax was found to be 58.2%.
Turning to `Cc1cc(C)c2c(n1)sc1c(C3CCN(C(=O)C4CCCO4)CC3)ncnc12` (stereo not shown) [Compound 15, (4-(7,9-dimethylpyrido[3′,2′:4,5]thieno[3,2-d]pyrimidin-4-yl)piperidin-1-yl)(tetrahydrofuran-2-yl)methanone], on Human M4, the concentration giving a half-maximal response (EC50) worked out at 1000 nM and the maximal response (Emax) is 44%.
In the case of `Cc1cc(C)c2c(n1)sc1c(-c3nccs3)ncnc12` [Compound 3, 7,9-dimethyl-4-(thiazol-2-yl)pyrido[3′,2′:4,5]thieno[3,2-d]pyrimidine; 2,2,2-trifluoroacetic acid], at Human M4, the EC50 was 3400 nM and the Emax was determined as 62.2%.
On to `CCc1ncnc2c1sc1nc(C)cc(C)c12` [Compound 6, 4-ethyl-7,9-dimethylpyrido[3′,2′:4,5]thieno[3,2-d]pyrimidine], for which, at Human M4, the EC50 came to 2900 nM and the Emax amounted to 59.1%.
